Experimental data published in ChEMBL document CHEMBL4665623, “Rational drug design for androgen receptor and glucocorticoids receptor dual antagonist” (Eur J Med Chem, 2019).

Assays:
[1] = molecular target: T1, Androgen receptor (Homo sapiens) (UniProt P10275); test: Antagonist activity at recombinant androgen receptor (unknown origin) transfected in human PC-3 cells co-transfected with PSA and luciferase at 10 uM incubated for 24 hrs by dual luciferase reporter gene assay relative to control; type: cell-based
T1 sequence (whole entry): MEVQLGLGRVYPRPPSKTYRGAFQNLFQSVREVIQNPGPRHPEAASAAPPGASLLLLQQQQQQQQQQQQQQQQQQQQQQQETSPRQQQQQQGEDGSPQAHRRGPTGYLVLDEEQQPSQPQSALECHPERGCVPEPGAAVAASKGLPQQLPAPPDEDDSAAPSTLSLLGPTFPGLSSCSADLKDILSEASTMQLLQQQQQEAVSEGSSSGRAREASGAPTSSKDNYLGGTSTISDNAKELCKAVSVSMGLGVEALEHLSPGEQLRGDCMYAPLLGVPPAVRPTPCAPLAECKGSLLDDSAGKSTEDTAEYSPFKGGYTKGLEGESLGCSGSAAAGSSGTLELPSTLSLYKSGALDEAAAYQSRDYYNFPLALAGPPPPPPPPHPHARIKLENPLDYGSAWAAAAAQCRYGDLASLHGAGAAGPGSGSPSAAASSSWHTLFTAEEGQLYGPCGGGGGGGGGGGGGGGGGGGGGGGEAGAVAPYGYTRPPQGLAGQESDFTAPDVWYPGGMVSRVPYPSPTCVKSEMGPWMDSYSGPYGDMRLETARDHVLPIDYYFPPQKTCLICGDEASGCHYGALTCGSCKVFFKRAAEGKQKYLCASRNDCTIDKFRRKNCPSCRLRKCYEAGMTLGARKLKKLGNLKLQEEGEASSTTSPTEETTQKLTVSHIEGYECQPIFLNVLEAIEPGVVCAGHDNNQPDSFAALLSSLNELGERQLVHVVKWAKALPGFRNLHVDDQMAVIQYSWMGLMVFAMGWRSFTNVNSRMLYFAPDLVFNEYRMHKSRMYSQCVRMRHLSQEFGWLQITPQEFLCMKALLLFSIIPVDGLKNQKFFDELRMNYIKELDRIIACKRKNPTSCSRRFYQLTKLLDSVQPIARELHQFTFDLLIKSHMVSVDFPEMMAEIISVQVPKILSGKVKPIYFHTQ

Androgen receptor = molecular target: T2, Androgen receptor (Homo sapiens, UniProt P10275); test: Antagonist activity at recombinant androgen receptor (unknown origin) transfected in human LNCaP cells co-transfected with PSA and luciferase incubated for 24 hrs by dual luciferase reporter gene assay; type: cell-based
T2 sequence (P10275 whole entry): T1 sequence (whole entry)

[2] = Effect on androgen receptor expression in human LNCaP cells at 1 and 10 uM incubated for 24 hrs by Western blot analysis; type: ADME, cell-based; conditions: dose 1-10 µM
[3] = Effect on glucocorticoid receptor expression in human PC-3 cells at 10 uM incubated for 24 hrs by Western blot analysis; type: ADME, cell-based; conditions: pc-3, 24 h
[4] = molecular target: T3, Androgen receptor (Rattus norvegicus) (UniProt P15207); conditions: filed as antagonist, time 1.0 min
T3 sequence (whole entry): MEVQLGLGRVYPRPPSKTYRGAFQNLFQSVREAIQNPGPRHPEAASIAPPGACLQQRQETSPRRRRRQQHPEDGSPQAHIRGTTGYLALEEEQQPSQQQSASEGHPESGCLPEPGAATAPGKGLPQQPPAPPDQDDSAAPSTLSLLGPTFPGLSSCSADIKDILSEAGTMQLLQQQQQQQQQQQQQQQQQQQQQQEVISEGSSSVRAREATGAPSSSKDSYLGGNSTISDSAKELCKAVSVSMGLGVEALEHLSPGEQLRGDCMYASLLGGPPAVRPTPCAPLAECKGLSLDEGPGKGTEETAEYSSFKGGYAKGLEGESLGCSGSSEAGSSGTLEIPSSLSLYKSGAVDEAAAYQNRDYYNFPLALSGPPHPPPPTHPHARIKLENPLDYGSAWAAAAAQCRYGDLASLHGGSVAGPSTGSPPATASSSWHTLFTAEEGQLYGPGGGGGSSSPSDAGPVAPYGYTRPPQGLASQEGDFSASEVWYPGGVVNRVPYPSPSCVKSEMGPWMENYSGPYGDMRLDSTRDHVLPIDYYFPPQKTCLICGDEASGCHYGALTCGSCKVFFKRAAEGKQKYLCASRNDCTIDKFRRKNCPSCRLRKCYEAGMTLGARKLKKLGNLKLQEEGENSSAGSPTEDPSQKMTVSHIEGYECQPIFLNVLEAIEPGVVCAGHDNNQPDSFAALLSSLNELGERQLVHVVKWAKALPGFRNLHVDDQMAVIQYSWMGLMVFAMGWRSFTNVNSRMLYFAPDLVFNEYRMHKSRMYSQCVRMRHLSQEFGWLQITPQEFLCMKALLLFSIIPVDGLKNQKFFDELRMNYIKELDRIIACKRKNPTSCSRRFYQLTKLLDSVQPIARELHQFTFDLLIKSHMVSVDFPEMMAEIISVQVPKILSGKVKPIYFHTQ

LNCaP = test: Antiproliferative activity against human LNCAP cells assessed as reduction in cell growth incubated for 72 hrs by MTT assay
[5] = Antiproliferative activity against human 22Rv1 cells assessed as reduction in cell growth incubated for 72 hrs by MTT assay; conditions: H22, 72 h
[6] = molecular target: T4, Glucocorticoid receptor (Homo sapiens) (UniProt P04150); conditions: filed as antagonist, time 1.0 min
T4 sequence (whole entry): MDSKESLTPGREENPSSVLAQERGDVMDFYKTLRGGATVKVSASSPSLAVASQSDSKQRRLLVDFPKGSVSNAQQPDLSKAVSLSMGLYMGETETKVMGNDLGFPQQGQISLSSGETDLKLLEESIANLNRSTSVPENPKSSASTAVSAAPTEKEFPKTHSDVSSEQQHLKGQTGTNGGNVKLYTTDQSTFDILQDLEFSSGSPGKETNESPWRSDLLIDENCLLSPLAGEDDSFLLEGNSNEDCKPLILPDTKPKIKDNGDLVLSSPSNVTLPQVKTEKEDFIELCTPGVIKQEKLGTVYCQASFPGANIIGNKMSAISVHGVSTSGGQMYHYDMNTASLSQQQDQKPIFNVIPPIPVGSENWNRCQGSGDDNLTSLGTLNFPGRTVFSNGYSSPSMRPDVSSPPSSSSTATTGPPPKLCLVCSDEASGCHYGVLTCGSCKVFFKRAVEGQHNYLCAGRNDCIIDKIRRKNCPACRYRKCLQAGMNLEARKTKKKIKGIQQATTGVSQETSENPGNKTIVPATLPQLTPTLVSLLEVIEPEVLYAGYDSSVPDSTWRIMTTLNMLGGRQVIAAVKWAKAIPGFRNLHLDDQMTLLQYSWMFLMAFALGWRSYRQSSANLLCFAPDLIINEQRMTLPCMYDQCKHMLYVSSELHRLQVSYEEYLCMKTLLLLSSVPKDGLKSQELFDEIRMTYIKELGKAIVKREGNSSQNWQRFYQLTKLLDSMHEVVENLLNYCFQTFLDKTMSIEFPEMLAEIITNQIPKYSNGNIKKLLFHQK

Row | inhibition [1] [%] | SMILES | other results
1 | > 20 | CCOC(=O)C1CCN(C(=O)Cc2ccc(N(Cc3ccccc3)C(=O)COc3ccccc3)cc2)CC1 | –
2 | > 20 | NC(=O)c1ccn(-c2cccc(NC(=O)C3(NC(=O)NCc4ccccc4)CCCC3)c2)n1 | –
3 | – | CCOC(=O)c1ccc(NC(=O)c2cccc(S(=O)(=O)N3CCCc4ccccc43)c2)s1 | IC50 (Androgen receptor): 2.03 µM; Activity [2]: Non-Toxic; Activity [3]: Non-Toxic; Kapp [4]: 15 µM
4 | > 20 | COc1ccccc1[C@H]1[C@H](Oc2cccc(C#N)c2)C(=O)N1Cc1cccc(N2CCCC2=O)c1 | –
5 | > 20 | COc1ccc([C@H](NC(=O)c2cccc(S(=O)(=O)N3C[C@H](C)C[C@@H](C)C3)c2)c2nccn2C)cc1 | –
6 | > 20 | CCc1ccc(-c2nn(C)c(=O)c3c2CCCC3)cc1S(=O)(=O)NCc1cccc(OC)c1 | –
7 | > 20 | COc1cc2cc(C(=O)N[C@H](C)C(=O)Nc3nc4ccccc4s3)[nH]c2c(OC)c1OC | –
8 | > 20 | COc1cccc(-c2ccc(N3CCN(C(=O)CN(Cc4ccccc4)C(=O)c4ccccc4C)CC3)nn2)c1 | –
9 | > 20 | Cc1nc(-c2ccc(C(C)C)c(S(=O)(=O)Nc3cccc(C#N)c3)c2)cs1 | –
10 | – | CNC(=O)c1ccc(N2C(=S)N(c3ccc(C#N)c(C(F)(F)F)c3)C(=O)C2(C)C)cc1F [ENZALUTAMIDE] | IC50 (LNCaP): 7.9 µM; IC50 [5]: > 40 µM; Kapp [4]: 24 µM
11 | – | CC#C[C@]1(O)CC[C@H]2[C@@H]3CCC4=CC(=O)CCC4=C3[C@@H](c3ccc(N(C)C)cc3)C[C@@]21C | Kapp [6]: 32 µM
